What was measured:
tumor cells = assay: Tumor cell cytotoxicity, MTT assay; type: cell-based; conditions: tumor cells treated for 24 hours
Protocol: Exponentially growing tumor cells were treated with the following compounds for 24 hours. Insoluble compounds were formulated in a small amount (0.3%) of DMSO for biological evaluation. Cell viability was determined by the calorimetric MTT assay using 3(4,5-dimethylthiazol-2-yl)-2,5-diphenyl-2H-tetrazolium bromide according to well-established procedures (see Berridge, et al. (1996) for a general protocol of this type of assay).

[1] = target: T1, Horseradish peroxidase (HRP) (Armoracia rusticana, UniProt P00433); assay: Peroxidase-mediated activation of catechols (HPLC loss of peak area); type: biochemical; conditions: for Relative Activation (% Control): relative to non-catechol control = 100; for Slope/Hrp: slope divided by HRP concentration (ug/ml): corrected disappearance
T1 construct: purchased Sigma P6782
T1 sequence (P00433 31-338 limits assumed): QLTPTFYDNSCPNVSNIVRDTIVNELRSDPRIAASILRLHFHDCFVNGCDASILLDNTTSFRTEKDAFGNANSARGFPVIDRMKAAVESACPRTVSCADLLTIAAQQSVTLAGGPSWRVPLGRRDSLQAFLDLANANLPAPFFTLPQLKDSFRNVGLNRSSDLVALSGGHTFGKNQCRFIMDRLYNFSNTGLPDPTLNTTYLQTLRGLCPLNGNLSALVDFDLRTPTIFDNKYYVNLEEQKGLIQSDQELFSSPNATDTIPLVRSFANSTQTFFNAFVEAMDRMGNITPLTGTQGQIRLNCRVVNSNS
Protocol: Methods: catechols were dissolved in DMSO immediately prior to assay (10 mM). HRP (Sigma, P6782, 1000 units/mg), was dissolved in phosphate buffered saline (PBS) at a concentration of 40 ug/ml. Fresh hydrogen peroxide (50 mM) was prepared from a 30% w/w solution (Sigma, H1009). Incubations were carried out in a water bath maintained at 37° C. Exact volumes varied depending on the catechol, but typically they comprised 1.92 ml PBS, 20 μl DMSO, 20 μl hydrogen peroxide and 20 μl drug in a 4 ml amber glass vial. Prior to addition of the drug, the vial was pre-incubated for 10 min. The reaction was initiated by the addition of 20 μl HRP. Samples (100 μl) were then removed at intervals, added to 100 μl acetonitrile and placed on ice. At the end of the incubation, samples were centrifuged (12000 g, 1 min) to remove precipitated protein and the supernatants placed in polypropylene hplc vials for analysis. Control incubations containing no HRP were carried out in the same way.
HPLC was performed using a Waters 2695 Separations Module with a sample compartment maintained at 10° C., and a Waters 2996 Photodiode Array Detector. The column was an ACE C18, 3 μm particle size, 125×3 mm (Hichrom) maintained at 30° C. Compounds were eluted with varying proportions of A: 5 mM KH2PO4, 5 mM H3PO4, and B: 75% acetonitrile, 25% water at a flow rate of […], in order to achieve a similar starting peak area for each catechol. Occasionally, in order to achieve a better resolution of the products, the latter was replaced with 100% methanol. Spectral data was collected from 220 nm to 500 nm, sampling rate 2/sec, 1.2 nm resolution. Data was analysed using Waters Millennium software.
Results: The loss of peak area at 300 nm of the prodrug was plotted against time, and a straight line fitted to the data. Loss of peak area was used to approximate the relative rates of loss of each catechol. The slope of the line-of-best-fit was then divided by the HRP concentration to give a corrected disappearance (see Table 3).

MHEC-5T tumors = assay: Reduction in tumor blood flow / functional tumor vessels (fluorescent beads); type: in vivo, mice; conditions: for Blood Flow at 10 mg/kg (% vessel area of control): MHEC-5T tumor-bearing SCID mice, 24 hours after dosing
Protocol: (§1) Catechols were dissolved in 50% DMSO (2 mg/kg) prior to intravenous (iv) administration (i.v.) to tumor-bearing mice. MHEC-5T tumors were established by subcutaneous injection of 0.5×10^6 cultured MHEC5-T cells (German Collection of Microorganisms and Cell Culture, Braunschweig, Germany) into the right flank of Fox Chase CB-17 severe combined immunodeficient (SCID) mice. Tumor grafts grew palpable within one week and reached the limited size (15×15 mm) within 10 days. Tumor bearing mice were injected intraperitoneally with saline control or various dosages of CA1P or CA4P after the transplanted tumor reached a size of 300 mm^3 (a size without development of necrosis). Twenty-four hours later they were injected with 0.25 ml of fluorescent FluoSphere beads (0.1 μm beads conjugated with blue fluorescent tag (F-8789, Molecular Probes, Eugene, Oreg.) and diluted 1:6 in physiological saline) in the tail vein, and sacrificed after 3 minutes. Tumors were then excised for cryosections. Cryosections of 8 μm thickness were directly examined under a fluorescent microscope. Functional blood vessels were indicated by blue fluorescence from injected microbeads. For quantification, three sections from three tumors treated in each group were examined and in each section, more than 70% of the area was automatically recorded with a microscopic digital camera at ×10 magnification. A computer program named Stage Pro (Media Cybernetics, Md.) was used to control the picture recording. Image analysis was performed with Image Plus software (Media Cybernetics, Md.). The results were expressed as vessel area per mm^2 in percentage of the control in Table 2.
as §1, with “The effect of CA1P on tumor blood flow was evaluated by quantifying the number of functional tumor vessels” for “Catechols were dissolved”, “treated murine tumors.” for “50% DMSO (2 mg/kg) prior to intravenous (iv) administration (i.v.) to tumor-bearing mice.”, “as in Example 4c.” for “by subcutaneous injection of 0.5×10^6 cultured MHEC5-T cells (German Collection of Microorganisms and Cell Culture, Braunschweig, Germany) into the right flank of Fox Chase CB-17 severe combined immunodeficient (SCID) mice. Tumor grafts grew palpable within one week and reached the limited size (15×15 mm) within 10 days.”, “MD)” for “Md.)”, “MD).” for “Md.).”, “control.” for “control in Table 2.”

[2] = system: murine adenocarcinoma CaNT; assay: Tumor growth control in CaNT murine tumor model; type: in vivo, mice; conditions: single doses of 100, 200, and 400 mg/kg i.p., FIG. 5
Protocol: The murine adenocarcinoma CaNT was grown subcutaneously on the back of 12- to 16-week old CBA/Gy fTO mice. Tumors were initiated by the injection of 0.05 ml of a crude tumor cell suspension prepared from a donor mouse. Animals were selected for treatment after 3 or 4 weeks, when tumors had reached a geometric mean diameter of 5 to 6.5 mm. CA1P and CA4P were dissolved in 0.9% saline at various concentrations and injected intraperitoneally into tumor bearing mice. Each treatment group consisted of between five and nine mice. A control treatment group was injected with 0.9% saline.

[3] = system: murine adenocarcinoma CaNT; assay: Functional vascular volume of tumor vessels (Hoechst 333342); type: in vivo, mice
Protocol: The effect of CA1P on tumor blood flow was evaluated by quantification of the functional volume of tumor vessels in treated murine tumors using a procedure previously described in detail and incorporated by reference herein (Smith K A, Br. J. Cancer, 57:247-253, 1988). The murine adenocarcinoma CaNT was grown subcutaneously on the back of 12- to 16-week old CBA/Gy fTO mice. Tumors were initiated by the injection of 0.05 ml of a crude tumor cell suspension prepared from a donor mouse. Animals were selected for treatment after 3 or 4 weeks, when tumors had reached a geometric mean diameter of 5 to 6.5 mm. CA1P and CA4P were dissolved in 0.9% saline at various concentrations and injected intraperitoneally into tumor bearing mice. Each treatment group consisted of between five and nine mice. A control treatment group was injected with 0.9% saline. At 24 hours post-injection, each mouse was injected intravenously with a 10 mg/kg dose of the fluorescent DNA-binding dye Hoechst 333342 and sacrificed 1 minute later. Tumors were immediately excised and bisected. Frozen tumor sections were cut at three levels and viewed under UV excitation where the fluorescent staining of perivascular cells identified perfused vessels. Vascular volumes were quantified based on a random point scoring system previously described and incorporated by reference herein (Chalkley H W, J. Natl Cancer Institute, 4: 47-53, 1943). All estimates were based on counting 100 fields from sections cut at each of the 3 different levels and the calculated vascular volumes were expressed as a percentage of the mean value for control tumors.

tubulin = conditions: cited from earlier work
[4] = cited from earlier work
Purified tubulin = assay: Inhibition of tubulin polymerization (turbidimetric, 350 nm); type: biochemical; conditions: purified tubulin 1 mg/ml, read-out: Tubulin Binding (uM IC50)
Protocol: The method of Verdier-Pinard (1998, Molec. Pharmacol. 53, 62-76) was used to assay catechol compounds for inhibition of tubulin polymerization. Tubulin polymerization was followed turbidimetrically at 350 nm on an Agilent 8453 spectrophotometer equipped with a kinetics program, a jacketed cell holder, and two microprocessor-controlled water baths. Purified tubulin (1 mg/ml) was induced to polymerize in a monosodium glutamate/GTP solution by a jump in temperature. Absorbance was recorded every 10 seconds and the data was analyzed by a GraphPad Prism program.

| Compound | IC50 (tumor cells; 24 h) [µM] | Relative Activation (% Control) [1] [% Control] | Slope/Hrp [1] | further results |
| --- | --- | --- | --- | --- |
| COc1cc(/C=C\c2ccc(F)c(O)c2O)cc(OC)c1OC | 0.546 | 0.006 | −6675900 | – |
| COc1cc(/C=C\c2ccc(O)c(O)c2O)cc(OC)c1OC | 0.069 | – | – | Blood Flow at 10 mg/kg (% vessel area of control) (MHEC-5T tumors): 26.7 % vessel area of control |
| COc1cc(/C=C\c2ccc([N+](=O)[O-])c(O)c2O)cc(OC)c1OC | 0.28 | – | −1902300 | – |
| C=CCOc1ccc(/C=C\c2cc(OC)c(OC)c(OC)c2)c(O)c1O | 0.007 | – | −16925 | Blood Flow at 10 mg/kg (% vessel area of control) (MHEC-5T tumors): 60 % vessel area of control |
| COc1ccc(/C=C\c2cc(OC)c(OC)c(OC)c2)cc1OP(=O)([O-])[O-].[Na+].[Na+] [CA4P, Combretastatin A-4 Disodium Phosphate Prodrug, reference compound] | – | – | – | ED50 (vascular effect) (MHEC-5T tumors; functional vessel number per mm^2, i.p., 24 hr, MHEC-5T tumors): 43 mg/kg; blood flow in the central region of tumors (MHEC-5T tumors; spatial distribution of blood vessel shutdown): blood flow reduction; effect on tumor growth [2]: no measurable effect on tumor growth; effect on vascular volume ([3]; doses below 50 mg/kg i.p.): no significant effect; dose required to produce an effect similar to that of 1 mg/kg of CA1P ([3]; functional vascular volume): 25 mg/kg |
| COc1ccc(/C=C\c2cc(OC)c(OC)c(OC)c2)cc1O [CA-4, Combretastatin A-4] | – | – | – | tubulin binding activity (tubulin): potent; solubility in human plasma [4]: insolubility |
| COc1cc(/C=C\c2cccc(OP(=O)([O-])[O-])c2OP(=O)([O-])[O-])cc(OC)c1OC.[Na+].[Na+].[Na+].[Na+] [ZSB-36, 2′,3′diphosphate-3,4,5-trimethoxy-(Z)-stilbene, tetrasodium salt] | – | – | – | IC50 (tumor cells): 0.4 µM; Blood Flow at 10 mg/kg (% vessel area of control) (MHEC-5T tumors): 94 % vessel area of control |
| COc1cc(/C=C\c2cc(Br)cc(O)c2O)cc(OC)c1OC [ZSB-74, 4-Bromo-6-[(Z)-2-(3,4,5-trimethoxyphenyl)vinyl]-1,2-dihydroxybenzene] | 0.34 | 0.203 | −182825 | IC50 (Purified tubulin): 2.1 µM |
| COc1cc(/C=C\c2ccc(C)c(O)c2O)cc(OC)c1OC [ZSB-75, 3-Methyl-6-[(Z)-2-(3,4,5-trimethoxyphenyl)vinyl]-1,2-dihydroxybenzene] | 0.9 | 1.703 | −21783 | – |
| CCc1ccc(/C=C\c2cc(OC)c(OC)c(OC)c2)c(O)c1O [ZSB-76, 3-Ethyl-6-[(Z)-2-(3,4,5-trimethoxyphenyl)vinyl]-1,2-dihydroxybenzene] | 0.542 | 6.743 | −5502 | – |
| C=CCc1ccc(/C=C\c2cc(OC)c(OC)c(OC)c2)c(O)c1O [ZSB-77, 3-Allyl-6-[(Z)-2-(3,4,5-trimethoxyphenyl)vinyl]-1,2-dihydroxybenzene] | 0.748 | 1.875 | −19783 | – |
| COc1cc(/C=C\c2cc(-c3ccccc3)cc(O)c2O)cc(OC)c1OC [ZSB-80, 4-Phenyl-6-[(Z)-2-(3,4,5-trimethoxyphenyl)vinyl]-1,2-dihydroxybenzene] | – | 0.017 | −2158250 | IC50 (tumor cells): 1.56 µM |
| CCOc1ccc(/C=C\c2cc(OC)c(OC)c(OC)c2)c(O)c1O [ZSB-81] | – | – | – | IC50 (tumor cells): 0.094 µM |
| COc1cc(/C=C\c2cccc(O)c2O)cc(OC)c1OC [ZSB-82, 6-[(Z)-2-(3,4,5-Trimethoxyphenyl)vinyl]-1,2-dihydroxybenzene] | 0.143 | 0.029 | −1269800 | IC50 (Purified tubulin): 6.2 µM |

Reference: patent US8198302B2 (OXiGENE, Inc., priority 2004, dated 2012)
